{"source": "paper PMC6848974", "about": "(Science translational medicine, 2019)", "key": {"Ca/09": {"tested_on": "Ca/09", "assay": "cells", "assay_type": "cell-based, human airway epithelia"}, "[1]": {"tested_on": "A/California/07/2009 (H1N1)", "parameters": "species or system ferrets", "conditions": "in vivo"}, "[2]": {"tested_on": "HBTECs mitochondrial (COX1) and nuclear (SDH-A) protein expression"}, "[3]": {"tested_on": "well-differentiated human airway epithelia"}, "[4]": {"tested_on": "HBTEC nuclear (SDH-A) and mitochondrial (COX1) mRNAs", "assay": "Transitions in host mRNA of HBTECs", "conditions": "72 hours"}, "[5]": {"tested_on": "Ca/09, Wi/05, and B/Brisbane/60/2008", "assay": "microbe, parasite or virus in culture", "assay_type": "cell-based, human airway epithelia"}, "in vitro": {"assay": "in vitro", "conditions": "human"}, "[6]": {"tested_on": "ferret lung nuclear (TNFα) and mitochondrial (COX15) mRNAs", "conditions": "in vivo, po, 100 mg/kg"}, "PK and PD": {"assay": "PK and PD", "assay_type": "in vivo", "conditions": "ferrets"}, "[7]": {"assay": "Plasma PK in cynomolgus macaques", "assay_type": "in vivo", "conditions": "non-human primates"}, "[8]": {"tested_on": "A/Wisconsin/67/2005 (H3N2)", "parameters": "species or system ferrets", "conditions": "in vivo"}, "[9]": {"assay": "PK of NHC and EIDD-2801 in mice"}}, "note": "pEC50: −log10 of the molar value. “Also recorded” adds a separate entry of the source.", "data": [{"molecule": "CCC(CC)O[C@@H]1C=C(C(=O)O)C[C@H](N)[C@H]1NC(C)=O", "note": "[oseltamivir carboxylate, reference compound]", "values": [{"measurement": "pEC50", "setting": "Ca/09; Homo sapiens, 72 h", "result": 6.72}]}, {"molecule": "CCOC(=O)C1=C[C@@H](OC(CC)CC)[C@H](NC(C)=O)[C@@H](N)C1", "note": "[oseltamivir, oseltamivir-phosphate, reference compound]", "values": [{"measurement": "bronchiolar inflammation in lung sections versus EIDD-2801 therapeutic groups", "setting": "[1]", "result": "more pronounced"}, {"measurement": "inhibitory effect on shed virus titer", "setting": "[1]", "result": "no significant (P ≥0.13) inhibitory effect"}]}, {"molecule": "O=c1nc(NO)ccn1[C@@H]1O[C@H](CO)[C@@H](O)[C@H]1O", "note": "[NHC, N^4-hydroxycytidine]", "values": [{"measurement": "impact on mitochondrial versus nuclear protein expression", "setting": "[2]", "result": "significantly greater"}, {"measurement": "apically released virus load", "setting": "Ca/09", "result": "significantly reduced"}, {"measurement": "cytotoxicity threshold", "setting": "[3]", "result": "~50", "unit": "µM"}, {"measurement": "off-target effects (transition mutations in host mRNAs)", "setting": "[4]; 1.8 μM NHC", "result": "no off-target effects"}, {"measurement": "transition mutations in host mRNAs", "setting": "[4]; higher NHC concentrations (50 μM, 10 μM)", "result": "increased C to U and U to C transitions"}, {"measurement": "EC50 in human epithelia lower than in immortalized cell lines", "setting": "[5]", "result": "25-50 fold"}, {"measurement": "EC99", "setting": "[5]", "result": "0.15 to 0.25", "unit": "µM"}, {"measurement": "antiviral effect in infected differentiated epithelia", "setting": "[5]", "result": "sterilizing"}, {"measurement": "robust efficacy threshold", "setting": "[5]", "result": "approximately 0.2 μM"}, {"measurement": "pEC50", "setting": "[5]; Influenza A virus, in Homo sapiens, 72 h", "result": "7.10 to 7.22"}, {"measurement": "CC50", "setting": "in vitro", "result": 137000, "unit": "nM"}]}, {"molecule": "CC(C)C(=O)OC[C@H]1O[C@@H](n2ccc(NO)nc2=O)[C@H](O)[C@@H]1O", "note": "[EIDD-2801]", "values": [{"measurement": "transition frequencies in nuclear and mitochondrial message versus vehicle", "setting": "[6]", "result": "indistinguishable"}, {"measurement": "cellular infiltrates in nasal cavities and blood lymphocyte counts", "setting": "[1]", "result": "remained unchanged"}, {"measurement": "duration of fever", "setting": "[1]", "result": "shortened; also recorded: significantly (P <0.0001 and P = 0.03, respectively) reduced"}, {"measurement": "reduction of shed viral titers", "setting": "[1]", "result": "≥ 4 orders of magnitude"}, {"measurement": "reduction of tissue (nasal turbinate) viral titers", "setting": "[1]", "result": "more than 4 orders of magnitude"}, {"measurement": "relative cytokine and CXCL10 induction", "setting": "[1]", "result": "significantly lowered"}, {"measurement": "shed virus load", "setting": "[1]", "result": "dropped by several orders of magnitude; also recorded: significantly (P <0.0001 and P = 0.03, respectively) reduced"}, {"measurement": "shed virus load in nasal lavages", "setting": "[1]", "result": "at or below limit of detection"}, {"measurement": "time at which fever started to decline", "setting": "[1]", "result": "approximately 1.5 days after infection"}, {"measurement": "viral titers in bronchioalveolar lavages and lung tissue", "setting": "[1]", "result": "significantly reduced"}, {"measurement": "virus burden in nasal turbinates and tracheas", "setting": "[1]", "result": "reduction of several orders of magnitude"}, {"measurement": "virus in lung sections by immunohistochemistry", "setting": "[1]", "result": "immunohistochemically undetectable"}, {"measurement": "oral bioavailability compared to NHC", "setting": "PK and PD; oral", "result": "increased oral bioavailability"}, {"measurement": "tolerability (phenotypically appreciable adverse effects)", "setting": "PK and PD; seven b.i.d. oral doses at 100 mg/kg", "result": "well tolerated"}, {"measurement": "drug accumulation on repeat dosing", "setting": "PK and PD; single versus multi-dose oral b.i.d.", "result": "does not lead to drug accumulation"}, {"measurement": "oral bioavailability compared to NHC", "setting": "[7]", "result": "increased oral bioavailability"}, {"measurement": "reduction of shed viral titers", "setting": "[8]", "result": "≥ 4 orders of magnitude"}, {"measurement": "shed virus load in nasal lavages", "setting": "[8]", "result": "at or below limit of detection"}, {"measurement": "tissue (nasal turbinate) viral titers", "setting": "[8]", "result": "undetectable"}, {"measurement": "hydrolysis in vivo after absorption (only free NHC detected in plasma)", "setting": "[9]", "result": "efficiently hydrolyzed"}]}]}
